From US20240208992A1, “MACROCYCLES AS CFTR MODULATORS” (Idorsia Pharmaceuticals Ltd, priority 2021, published 2024)
Values belong to the compound of their own block, whether it stands above or below them.

Molecular target: human F508del-CFTR (Homo sapiens, UniProt P13569, DEL508-508)
Test: F508del-CFTR cell surface expression (corrector activity), DiscoveRx ß-galactosidase complementation chemiluminescence assay in recombinant U2OS cell line;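 also: U2OS cells co-expressing ProLink-tagged F508del-CFTR and a membrane-anchored enzyme acceptor, where more surface CFTR restores β-galactosidase activity measured by chemiluminescence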
Conditions: U2OS cell line, 16h compound incubation; for EC50: EC50, F508del-CFTR cell surface expression, geomean values; for Emax: U2OS, in relation to the Emax of the corrector lumacaftor (=100%), arithmetic mean values

Chain of human F508del-CFTR (P13569 with tags, fused parts or gaps DEL508-508): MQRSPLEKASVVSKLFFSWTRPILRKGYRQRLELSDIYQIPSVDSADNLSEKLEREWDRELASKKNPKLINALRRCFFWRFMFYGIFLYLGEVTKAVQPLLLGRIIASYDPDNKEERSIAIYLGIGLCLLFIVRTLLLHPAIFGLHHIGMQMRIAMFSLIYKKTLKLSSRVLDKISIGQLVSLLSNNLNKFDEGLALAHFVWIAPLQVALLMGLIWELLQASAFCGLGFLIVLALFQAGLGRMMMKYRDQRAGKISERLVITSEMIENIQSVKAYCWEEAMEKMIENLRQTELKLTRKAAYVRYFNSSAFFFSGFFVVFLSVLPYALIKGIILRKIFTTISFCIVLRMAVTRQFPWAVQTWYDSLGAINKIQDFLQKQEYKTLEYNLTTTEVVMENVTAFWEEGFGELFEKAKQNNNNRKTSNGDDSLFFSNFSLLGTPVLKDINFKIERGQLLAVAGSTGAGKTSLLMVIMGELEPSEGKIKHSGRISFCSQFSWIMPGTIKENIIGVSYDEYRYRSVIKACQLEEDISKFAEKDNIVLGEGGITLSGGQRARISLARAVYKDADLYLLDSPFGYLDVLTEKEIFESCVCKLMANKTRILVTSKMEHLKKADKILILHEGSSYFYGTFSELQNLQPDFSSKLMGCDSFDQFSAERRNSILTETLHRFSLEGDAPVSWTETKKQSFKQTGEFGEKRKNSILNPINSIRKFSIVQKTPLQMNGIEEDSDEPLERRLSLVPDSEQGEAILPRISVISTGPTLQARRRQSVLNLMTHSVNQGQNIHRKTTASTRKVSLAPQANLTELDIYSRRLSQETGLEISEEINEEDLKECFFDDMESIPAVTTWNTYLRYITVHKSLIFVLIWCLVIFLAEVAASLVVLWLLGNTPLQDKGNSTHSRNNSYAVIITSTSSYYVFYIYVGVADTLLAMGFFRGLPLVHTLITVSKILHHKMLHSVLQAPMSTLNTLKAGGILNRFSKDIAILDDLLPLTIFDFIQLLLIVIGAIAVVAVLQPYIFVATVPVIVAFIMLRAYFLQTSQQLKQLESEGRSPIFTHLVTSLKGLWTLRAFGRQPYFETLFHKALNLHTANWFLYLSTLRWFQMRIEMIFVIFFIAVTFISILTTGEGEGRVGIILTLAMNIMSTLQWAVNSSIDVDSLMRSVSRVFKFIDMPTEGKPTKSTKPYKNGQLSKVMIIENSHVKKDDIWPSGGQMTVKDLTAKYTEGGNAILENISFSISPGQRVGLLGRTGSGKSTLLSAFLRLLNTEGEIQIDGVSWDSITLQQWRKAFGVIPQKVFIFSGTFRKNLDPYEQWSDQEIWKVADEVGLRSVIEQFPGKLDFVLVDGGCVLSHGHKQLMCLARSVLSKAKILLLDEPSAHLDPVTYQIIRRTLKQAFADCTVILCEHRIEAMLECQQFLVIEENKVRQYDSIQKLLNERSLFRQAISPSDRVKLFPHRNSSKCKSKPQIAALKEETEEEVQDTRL

EC50: 91 nM
Emax: 333%
Compound: COc1cc(OC)c2c(c1)OC[C@@H](Cc1ccccc1)NC(=O)CN(CCC1CCCCC1)C(=O)[C@H](CC(C)C)N(C)C(=O)C[C@@H](C(=O)NCCc1ccc3c(c1)OCC3)NC2=O [Example 276, (3R,9S,13S)-3-benzyl-7-(2-cyclohexylethyl)-N-(2-(2,3-dihydrobenzofuran-6-yl)ethyl)-9-isobutyl-16,18-dimethoxy-10-methyl-5,8,11,15-tetraoxo-2,3,4,5,6,7,8,9,10,11,12,13,14,15-tetradecahydrobenzo[p][1]oxa[4,7,10,14]tetraazacycloheptadecine-13-carboxamide]

Compound: COc1cccc(CCNC(=O)[C@@H]2CC(=O)N(C)[C@@H](CC(C)C)C(=O)N(C)CC(=O)N[C@H](Cc3ccccc3)COc3cccc(F)c3C(=O)N2)c1 [Example 277, (3R,9S,13S)-3-benzyl-16-fluoro-9-isobutyl-N-(3-methoxyphenethyl)-7,10-dimethyl-5,8,11,15-tetraoxo-2,3,4,5,6,7,8,9,10,11,12,13,14,15-tetradecahydrobenzo[p][1]oxa[4,7,10,14]tetraazacycloheptadecine-13-carboxamide]
EC50: 830 nM
Emax: 134%

Compound: CC(C)C[C@H]1C(=O)N(C)CC(=O)N[C@H](Cc2ccccc2)COc2cccc(F)c2C(=O)N[C@H](C(=O)NCCc2ccc3c(c2)OCO3)CC(=O)N1C [Example 278, (3R,9S,13S)-N-(2-(benzo[d][1,3]dioxol-5-yl)ethyl)-3-benzyl-16-fluoro-9-isobutyl-7,10-dimethyl-5,8,11,15-tetraoxo-2,3,4,5,6,7,8,9,10,11,12,13,14,15-tetradecahydrobenzo[p][1]oxa[4,7,10,14]tetraazacycloheptadecine-13-carboxamide]
EC50: 709 nM
Emax: 167%

Compound: CC(C)C[C@H]1C(=O)N(C)CC(=O)N[C@H](Cc2ccccc2)COc2cccc(Cl)c2C(=O)N[C@H](C(=O)NCCc2ccc3c(c2)OCO3)CC(=O)N1C [Example 279, (3R,9S,13S)-N-(2-(benzo[d][1,3]dioxol-5-yl)ethyl)-3-benzyl-16-chloro-9-isobutyl-7,10-dimethyl-5,8,11,15-tetraoxo-2,3,4,5,6,7,8,9,10,11,12,13,14,15-tetradecahydrobenzo[p][1]oxa[4,7,10,14]tetraazacycloheptadecine-13-carboxamide]
EC50: 643 nM
Emax: 112%

Compound: CCOc1cccc2c1C(=O)N[C@H](C(=O)NCCc1cccc(OC)c1)CC(=O)N(C)[C@@H](CC(C)C)C(=O)N1CCCC[C@@H]1C(=O)N[C@H](Cc1ccccc1)CO2 [Example 280, (7S,11S,20R,22aR)-20-benzyl-14-ethoxy-7-isobutyl-N-(3-methoxyphenethyl)-8-methyl-6,9,13,22-tetraoxo-1,3,4,6,7,8,9,10,11,12,13,19,20,21,22,22a-hexadecahydro-2H-benzo[p]pyrido[2,1-f][1]oxa[4,7,10,14]tetraazacycloheptadecine-11-carboxamide]
EC50: 297 nM
Emax: 188%

Compound: COc1nccc2c1C(=O)N[C@H](C(=O)NCCc1ccc3c(c1)OCO3)CC(=O)N(C)[C@@H](CC(C)C)C(=O)N(CCC1CCCCC1)CC(=O)N[C@H](Cc1ccccc1)CO2 [Example 281, (3R,9S,13S)-N-(2-(benzo[d][1,3]dioxol-5-yl)ethyl)-3-benzyl-7-(2-cyclohexylethyl)-9-isobutyl-16-methoxy-10-methyl-5,8,11,15-tetraoxo-2,3,4,5,6,7,8,9,10,11,12,13,14,15-tetradecahydropyrido[3,4-p][1]oxa[4,7,10,14]tetraazacycloheptadecine-13-carboxamide]
EC50: 110 nM
Emax: 361%

Compound: COc1cccc(CCNC(=O)[C@@H]2CC(=O)N(C)[C@@H](CC(C)C)C(=O)N(CCC3CCCCC3)CC(=O)N[C@H](Cc3ccccc3)COc3ccnc(OC)c3C(=O)N2)c1 [Example 282, (3R,9S,13S)-3-benzyl-7-(2-cyclohexylethyl)-9-isobutyl-16-methoxy-N-(3-methoxyphenethyl)-10-methyl-5,8,11,15-tetraoxo-2,3,4,5,6,7,8,9,10,11,12,13,14,15-tetradecahydropyrido[3,4-p][1]oxa[4,7,10,14]tetraazacycloheptadecine-13-carboxamide]
EC50: 114 nM
Emax: 360%

Compound: CCOc1cccc2c1C(=O)N[C@H](C(=O)NCCc1ccc3c(c1)OCCO3)CC(=O)N(C)[C@@H](CC(C)C)C(=O)C1CCC[C@@H](N1)C(=O)N[C@H](Cc1ccccc1)CO2 [Example 283, (7S,11S,20R,22aR)-20-benzyl-N-(2-(2,3-dihydrobenzo[b][1,4]dioxin-6-yl)ethyl)-14-ethoxy-7-isobutyl-8-methyl-6,9,13,22-tetraoxo-1,3,4,6,7,8,9,10,11,12,13,19,20,21,22,22a-hexadecahydro-2H-benzo[p]pyrido[2,1-f][1]oxa[4,7,10,14]tetraazacycloheptadecine-11-carboxamide]
EC50: 272 nM
Emax: 231%

Compound: COc1cccc2c1C(=O)N[C@H](C(=O)NCCc1ccc3c(c1)OCO3)CC(=O)N(C)[C@@H](CC(C)C)C(=O)N(C[C@H]1CCCCO1)CC(=O)N[C@H](Cc1ccccc1)CO2 [Example 305, (3R,9S,13S)-N-(2-(benzo[d][1,3]dioxol-5-yl)ethyl)-3-benzyl-9-isobutyl-16-methoxy-10-methyl-5,8,11,15-tetraoxo-7-(((R)-tetrahydro-2H-pyran-2-yl)methyl)-2,3,4,5,6,7,8,9,10,11,12,13,14,15-tetradecahydrobenzo[p][1]oxa[4,7,10,14]tetraazacycloheptadecine-13-carboxamide]
EC50: 533 nM
Emax: 123%

Compound: COc1cccc2c1C(=O)N[C@H](C(=O)NCCc1ccc3c(c1)OCO3)CC(=O)N(C)[C@@H](CC(C)C)C(=O)N(C[C@@H]1CCCCO1)CC(=O)N[C@H](Cc1ccccc1)CO2 [Example 306, (3R,9S,13S)-N-(2-(benzo[d][1,3]dioxol-5-yl)ethyl)-3-benzyl-9-isobutyl-16-methoxy-10-methyl-5,8,11,15-tetraoxo-7-(((S)-tetrahydro-2H-pyran-2-yl)methyl)-2,3,4,5,6,7,8,9,10,11,12,13,14,15-tetradecahydrobenzo[p][1]oxa[4,7,10,14]tetraazacycloheptadecine-13-carboxamide]
EC50: 923 nM
Emax: 139%

Compound: COc1cccc2c1C(=O)N[C@H](C(=O)NCCc1ccc3c(c1)OCO3)CC(=O)N(C)[C@@H](CC1CCCC1)C(=O)N(C[C@H]1CCCCO1)CC(=O)N[C@H](Cc1ccccc1)CO2 [Example 307, (3R,9S,13S)-N-(2-(benzo[d][1,3]dioxol-5-yl)ethyl)-3-benzyl-9-(cyclopentylmethyl)-16-methoxy-10-methyl-5,8,11,15-tetraoxo-7-(((R)-tetrahydro-2H-pyran-2-yl)methyl)-2,3,4,5,6,7,8,9,10,11,12,13,14,15-tetradecahydrobenzo[p][1]oxa[4,7,10,14]tetraazacycloheptadecine-13-carboxamide]
EC50: 423 nM
Emax: 113%

Compound: COc1cccc2c1C(=O)N[C@H](C(=O)NCCc1ccc3c(c1)OCO3)CC(=O)N(C)[C@@H](CC1CCCC1)C(=O)N(C[C@@H]1CCCCO1)CC(=O)N[C@H](Cc1ccccc1)CO2 [Example 308, (3R,9S,13S)-N-(2-(benzo[d][1,3]dioxol-5-yl)ethyl)-3-benzyl-9-(cyclopentylmethyl)-16-methoxy-10-methyl-5,8,11,15-tetraoxo-7-(((S)-tetrahydro-2H-pyran-2-yl)methyl)-2,3,4,5,6,7,8,9,10,11,12,13,14,15-tetradecahydrobenzo[p][1]oxa[4,7,10,14]tetraazacycloheptadecine-13-carboxamide]
EC50: 469 nM
Emax: 103%

Compound: COc1cccc2c1C(=O)N[C@H](C(=O)NCCc1ccc3c(c1)OCO3)CC(=O)N(C)[C@@H](CC1CCCCC1)C(=O)N(C[C@@H]1CCCCO1)CC(=O)N[C@H](Cc1ccccc1)CO2 [Example 309, (3R,9S,13S)-N-(2-(benzo[d][1,3]dioxol-5-yl)ethyl)-3-benzyl-9-(cyclohexylmethyl)-16-methoxy-10-methyl-5,8,11,15-tetraoxo-7-(((S)-tetrahydro-2H-pyran-2-yl)methyl)-2,3,4,5,6,7,8,9,10,11,12,13,14,15-tetradecahydrobenzo[p][1]oxa[4,7,10,14]tetraazacycloheptadecine-13-carboxamide]
EC50: 456 nM
Emax: 113%

Compound: COc1cccc(CCNC(=O)[C@@H]2CC(=O)N(C)[C@@H](CC(C)C)C(=O)N(C[C@H]3CCCCO3)CC(=O)N[C@H](Cc3ccccc3)COc3cccc(OC)c3C(=O)N2)c1 [Example 311, (3R,9S,13S)-3-benzyl-9-isobutyl-16-methoxy-N-(3-methoxyphenethyl)-10-methyl-5,8,11,15-tetraoxo-7-(((R)-tetrahydro-2H-pyran-2-yl)methyl)-2,3,4,5,6,7,8,9,10,11,12,13,14,15-tetradecahydrobenzo[p][1]oxa[4,7,10,14]tetraazacycloheptadecine-13-carboxamide]
EC50: 454 nM
Emax: 127%

Compound: COc1cccc(CCNC(=O)[C@@H]2CC(=O)N(C)[C@@H](CC(C)C)C(=O)N(C[C@@H]3CCCCO3)CC(=O)N[C@H](Cc3ccccc3)COc3cccc(OC)c3C(=O)N2)c1 [Example 312, (3R,9S,13S)-3-benzyl-9-isobutyl-16-methoxy-N-(3-methoxyphenethyl)-10-methyl-5,8,11,15-tetraoxo-7-(((S)-tetrahydro-2H-pyran-2-yl)methyl)-2,3,4,5,6,7,8,9,10,11,12,13,14,15-tetradecahydrobenzo[p][1]oxa[4,7,10,14]tetraazacycloheptadecine-13-carboxamide]
EC50: 727 nM
Emax: 111%

Compound: COc1cccc(CCNC(=O)[C@@H]2CC(=O)N(C)[C@@H](CC3CCCC3)C(=O)N(C[C@H]3CCCCO3)CC(=O)N[C@H](Cc3ccccc3)COc3cccc(OC)c3C(=O)N2)c1 [Example 313, (3R,9S,13S)-3-benzyl-9-(cyclopentylmethyl)-16-methoxy-N-(3-methoxyphenethyl)-10-methyl-5,8,11,15-tetraoxo-7-(((R)-tetrahydro-2H-pyran-2-yl)methyl)-2,3,4,5,6,7,8,9,10,11,12,13,14,15-tetradecahydrobenzo[p][1]oxa[4,7,10,14]tetraazacycloheptadecine-13-carboxamide]
EC50: 313 nM
Emax: 119%
